Reference: US20230339874A1, “PIPERAZINYL COMPOUNDS AND METHODS FOR TREATING NEMATODE INFECTIONS” (The Governing Council of the University of Toronto, priority 2020, published 2023)
Where two headings read alike, the source gives them in different places.

How the values were obtained:
[1] = tested on: D. immitis larval stage 3 (L3) worms; test: D. immitis L3 development assay; type: in vivo; conditions: 72 h, read-out: D. immitis L3 development EC50 (μM)
[2] = tested on: Strongyloides ratti L3; type: in vivo; conditions: 72 h incubation, 1 replicate
[3] = tested on: Heligmosomoides polygyrus larval stage 3 (L3) worms; type: in vivo; conditions: 72 h incubation, one replicate
[4] = biological target: T1, rat VAChT (Rattus norvegicus, UniProt Q62666); test: Competition binding, displacement of [3H]vesamicol from rat VAChT
T1 sequence (Q62666 1-530): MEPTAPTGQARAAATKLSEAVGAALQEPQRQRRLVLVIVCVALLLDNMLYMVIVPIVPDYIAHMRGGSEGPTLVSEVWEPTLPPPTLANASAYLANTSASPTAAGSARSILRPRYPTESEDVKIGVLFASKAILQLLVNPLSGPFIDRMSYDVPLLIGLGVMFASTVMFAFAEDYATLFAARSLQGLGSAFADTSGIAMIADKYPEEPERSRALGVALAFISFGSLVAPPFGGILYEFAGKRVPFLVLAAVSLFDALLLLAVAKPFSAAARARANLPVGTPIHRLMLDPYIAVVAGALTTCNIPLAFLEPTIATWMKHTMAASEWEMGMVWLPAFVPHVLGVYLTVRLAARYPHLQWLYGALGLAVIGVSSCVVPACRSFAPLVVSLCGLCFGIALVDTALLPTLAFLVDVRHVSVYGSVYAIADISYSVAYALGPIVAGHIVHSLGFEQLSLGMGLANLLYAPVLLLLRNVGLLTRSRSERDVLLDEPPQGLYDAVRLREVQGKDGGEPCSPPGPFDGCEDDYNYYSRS

[5] = tested on: Danio rerio (zebrafish) embryos; test: Danio rerio (zebrafish) embryo abnormal developmental phenotype; type: in vivo; conditions: read-out: D. rerio (zebrafish) any phenotype EC50 (μM)
[6] = tested on: C. elegans L3 larvae; test: C. elegans L3 larvae abnormal locomotory behaviour on solid agar; conditions: solid agar MYOB + E. coli OP50, mean of 4 replicates; for % C. elegans L3 larvae any phene 1 h (conc.): 1 h exposure; for % C. elegans L3 larvae any phene 6 h (conc.): 6 h exposure; for % C. elegans L3 larvae any phene 24 h (conc.): 24 h exposure
Experimental: 20 animals were scored after either 1, 6 or 24 hours of exposure to drug (as indicated) per replicate. […] Data are reported as the mean % of animals with abnormal phenotype over 4 independent replicates.

[7] = tested on: Pristionchus pacificus young adult animals; test: Pristionchus pacificus young adult abnormal locomotory behaviour on solid agar; type: in vivo; conditions: 1 h, read-out: P. pacificus, young adult 1 h any phene at 1 h (EC50 (μM))
[8] = tested on: D. immitis microfilariae; test: D. immitis microfilariae immobility assay; type: in vivo; conditions: 72 h, read-out: D. immitis microfilariae immobility EC50 (μM)
[9] = displacement of [3H]vesamicol, rat VAChT expressed in P12 cells, read-out: ratVAChT Ki

Row | Compound | EC50 [1] | S. ratti L3 % lethality 25 μM [2] | H. Polygyrus % lethality L3 25 μM [3] | Ki [4, 9] | EC50 [5] | % C. elegans L3 larvae any phene 1 h (conc.) ([6]; 3.75 uM) | % C. elegans L3 larvae any phene 6 h (conc.) ([6]; 3.75 uM) | % C. elegans L3 larvae any phene 24 h (conc.) ([6]; 3.75 uM) | % C. elegans L3 larvae any phene 1 h (conc.) ([6]; 15 uM) | % C. elegans L3 larvae any phene 6 h (conc.) ([6]; 15 uM) | % C. elegans L3 larvae any phene 24 h (conc.) ([6]; 15 uM) | % C. elegans L3 larvae any phene 1 h (conc.) ([6]; 60 uM) | % C. elegans L3 larvae any phene 6 h (conc.) ([6]; 60 uM) | % C. elegans L3 larvae any phene 24 h (conc.) ([6]; 60 uM) | EC50 [7] | EC50 [8] | Ki [4]
1 | Cc1ccc(N2CCN(C3CCC(C)C3)CC2)cc1 (centres unmarked) [VI-a] | > 50 µM | 28.1% | 31.6% | 0.411 µM | > 15 µM | 58.3% | 1.7% | 0.0% | 98.3% | 74.2% | 20.0% | 100.0% | 100.0% | 100.0% | – | – | –
2 | Cc1ccc(N2CCN(CC3CC=CCC3)CC2)cc1 (centres unmarked) [VI-e] | – | 31.6% | 0% | 0.208 µM | 32.5 µM | 36.7% | 5.8% | 0.0% | 96.7% | 46.7% | 5.0% | 100.0% | 100.0% | 99.2% | 5.7 µM | – | –
3 | Cc1ccc(N2CCN(CC3CC4C=CC3C4)CC2)cc1 (centres unmarked) [VI-c] | > 50 µM | 0% | 7.6% | 0.159 µM | 16.9 µM | 33.8% | 7.5% | 0.0% | 100.0% | 64.2% | 10.0% | 100.0% | 84.2% | 100.0% | – | – | –
4 | FC(F)(F)c1cccc(N2CCN(CC3CCCC3)CC2)c1 [VI-k] | – | 0% | 34.1% | 6.68 µM | > 60 µM | 18.3% | 0.8% | 0.0% | 94.2% | 30.8% | 8.3% | 95.0% | 70.0% | 80.8% | > 60 µM | – | –
5 | Cc1cc(N2CCN(CC3CCCCC3)CC2)ccc1[N+](=O)[O-] [V-b] | 14 µM | – | – | – | 5.1 µM | 2.5% | 0.0% | 0.0% | 20.8% | 3.3% | 0.0% | 62.5% | 41.7% | 9.2% | > 60 µM | 5.1 µM | –
6 | O[C@@H]1CCCC[C@H]1N1CCC(c2ccccc2)CC1 (racemic) [vesamicol, reference compound] | – | 17.3% | 0% | – | 21.1 µM | 0.0% | 0.0% | 0.0% | 0.0% | 0.8% | 0.0% | 11.7% | 1.7% | 0.0% | > 60 µM | – | 0.0303 µM
